Consider one compound from patent US9578878B2, “Antimicrobial efficacy of an oregano oil and caprylic acid blend” (Kemin Industries, Inc., priority 2014, dated 2017).

One assay concerns A. brasiliensis. Briefly: Zone of inhibition assay. Type of assay: cell-based, Aspergillus brasiliensis. The note with it: 20 μL per 6 mm disk, 72 hrs, n = 3. How it is done: For assays to find minimum inhibitory concentrations, all treatments were diluted in 10% DMSO and 0.5% Tween 80 to stabilize the samples.
Microorganisms Escherichia coli (ATCC #8739), Streptococcus sanguinis (ATCC #BAA-1455), Salmonella enteria subsp. enterica (ex Kauffmann and Edwards) Le Minor and Popoff serovar Typhimurium (ATCC #14028), Staphylococcus aureus (ATCC #6538), Pseudomonas aeruginosa (ATCC #9027), and Candida albicans (ATCC #10231) were obtained from a −80° C. internal stock culture. Aspergillus brasiliensis (ATCC #16404) was obtained from an internal stock solution culture stored at 4° C. E. coli, S. enterica S. aureus, and P. aeruginosa were grown in tryptic soy broth (TSB) and incubated at 37° C. for 24 h. S. sanguinis was grown in brain heart infusion broth (BHI). A. brasiliensis was plated on Sabourand dextrose agar (SDA) and incubated at 25° C. for 5-7 days. C. albicans was grown in Sabourand dextrose broth (SDB) and incubated at 25° C. for 48 h.
A. brasiliensis was harvested by adding 18 mL sterile saline to the plate and agitating the mold from the agar with a sterile inoculating loop. The inoculum was collected upon agitation. All suspended microbes were diluted with the same type of broth media used to grow each organism until an inoculum in the range of 10^6 CFU/mL was achieved. The inoculum concentration was determined by plate count method. Each strain was identified by plating on the appropriate growth media, E. coli, S. aureus, and P. aeruginosa on tryptic soy agar (Bacto, BD Sciences, Manassas, Va.) and C. albicans and A. brasiliensis on Sabrouand dextrose agar, to ensure there was no contamination of the inoculum.
A zone of inhibition assay was used for A. brasiliensis and C. albicans. SDA was used as the plated medium. Inocula at 10^5 cfu/ml were prepared and counted using a Petroff-Hausser counting chamber. The diameter of no growth around a 6 mm blank disk after incubation at 25° C. for 72 hrs was compared to the untreated control. 20 μL of treatment was applied to each disk in triplicate. 10% DMSO was used as the control.

In assay [1] the test system is Aspergillus brasiliensis (ATCC #16404). Put plainly: Preservative efficacy testing in cream, Example 2 (Study 1 and 2). Type of assay: cell-based. How it is done: (§1) Oregano essential oil containing 67.8% carvacrol (lot number 628034, thymol was not detectable) was received from Kemin SCI. Caprylic acid was obtained from Fisher Scientific (catalog number AC12939). To make MicroCurb OC, a blend with 10% oregano essential oil and 90% caprylic acid (w/w) was prepared for initial testing. The solution was mixed thoroughly for 10 seconds by a vortex mixer until a clear, homogenous mixture was obtained, resulting in the product MicroCurb OC.
(§2) Creams were prepared aseptically by spraying 70% isopropyl alcohol on all surfaces and glassware. Preservative studies were completed at different times for caprylic acid alone (Study 1) and MicroCurb OC (Study 2). Tables 5 and 6 list the various ingredients and their percentages used in Study 1 and 2, respectively.
(§3) De-ionized water was added to a pre-weighed 250 mL beaker and mixed at 800 rpm using an overhead mixer (Eurostar power-b IKA-WERKE, Wilmington, N.C.) with a 3 blade impeller. Carbomer 940 was slowly added to the center of the mixing water. The mixture was hydrated for 30 minutes while covered with aluminum foil. Glycerin and Lysofix were slowly added to the solution. After solution appeared homogenous, safflower oil, olive oil, and coco caprylate were slowly added to the mixture at 1000 rpm. The solution was mixed for 30 minutes while covered with aluminum foil. Next the pH was measured (around 3.2) and adjusted to 5.5 with a 33.3% sodium hydroxide solution. The mixing speed was increased to 1400 rpm. From time to time, it was necessary to scrape the sides of the beaker with a spatula to ensure that the cream became homogenized. After 5 minutes, the cream was weighed and water was replenished for the mass lost during the processing.
(§4) Microorganisms Escherichia coli (ATCC #8739), Staphylococcus aureus (ATCC #6538), Pseudomonas aeruginosa (ATCC #9027), and Candida albicans (ATCC #10231) were obtained from −80° C. internal stock cultures. Aspergillus brasiliensis (ATCC #16404) was obtained from an internal stock solution stored at 4° C. E. coli, S. aureus, and P. aeruginosa were grown in TSB and incubated at 37° C. for 24 h. A. brasiliensis was plated on SDA and incubated at 25° C. for 5-7 days. C. albicans was grown in SDB and incubated at 25° C. for 48 h.
(§5) Pathogens in broth were harvested by centrifugation (2400 rpm, 20 minutes) and suspended in sterile phosphate buffer. A. brasiliensis was harvested by adding 18 mL sterile phosphate buffer to the plate and agitating the mold from the agar with a sterile inoculating loop. The spores were collected upon agitation. All suspended microbes were diluted with sterile phosphate buffer until a concentration in the range of 10^8 CFU/mL was achieved. The concentration was determined by plate count method. Each strain was identified by plating on the appropriate growth media, E. coli, S. aureus, and P. aeruginosa on TSA and C. albicans and A. brasiliensis on SDA, to ensure there was no contamination of the inoculum.
(§6) Preservative Efficacy Testing. Each tube was inoculated with the standardized microbial suspensions, using a ratio of 1 mL to 10 grams of the product, ensuring that the inoculum after suspension would yield the target level of 6-log CFU/g cream. For every testing time point, the sample was enumerated by sampling 1 g from the original product containers, serial dilution, and streaking plates containing the appropriate growth media to test colonization in duplicate. The inoculated plates were incubated at 25° C. for C. albicans and A. niger and 37° C. for E. coli, S. aureus, and P. aeruginosa. The number of viable microorganisms per gram was calculated via plate count method. The samples were enumerated on day 0, 2, 3, 5, 7, 14, and 28.
(§7) The plate counts obtained each day were averaged for each treatment. The results were shown graphically by the log count of each averaged value per treatment per day. For plates that had no growth, the lowest dilution plated was recorded.

Assay [2] concerns Candida albicans (ATCC #10231). The description is as above. The note with it: Study 1, cream with 0.5% or 1.0% caprylic acid, after 2 days. Type of assay: cell-based. How it is done:
as §1, §2, §3, §4, §5, §6, §7

In assay [3] the test system is Escherichia coli (ATCC #8739). The assay is described as above. Type of assay: cell-based. The note with it: Study 1, cream with 0.5% or 1.0% caprylic acid, after 3 days. The method, then: as §1, §2, §3, §4, §5, §6, §7
The test system of assay [4] is Pseudomonas aeruginosa (ATCC #9027). The description is as above. The note with it: Study 1, cream with 0.5% or 1.0% caprylic acid, after 2 days. Type of assay: cell-based. How it is done: as §1, §2, §3, §4, §5, §6, §7
Assay [5] deals with Staphylococcus aureus (ATCC #6538). Described as above. Type of assay: cell-based. The note with it: Study 1, cream with 0.5% or 1.0% caprylic acid, after 2 days. The method, then:
as §1, §2, §3, §4, §5, §6, §7

Turning to `CCCCCCCC(=O)O` [Caprylic Acid, octanoic acid], the “Inhibition Diameter, A. brasiliensis” value in the assay with A. brasiliensis (0.9% treatment), in the assay with A. brasiliensis (2.7% treatment) and in the assay on A. brasiliensis (4.5% treatment) was 0 mm each time. Besides, the “Log reduction of A. brasiliensis” value in assay [1] (Study 1, cream with caprylic acid, by the end of the study (28 days)) was determined as 2 log. Besides, the “Ability to reduce the mold in cream” value in assay [1] (caprylic acid alone as control) is given as “unable to reduce the mold”. In addition, the “Log reduction of C. albicans” value in assay [2] came to 5 log. In addition, the “Log reduction of E. coli” value in assay [3] is listed as 5 log. Moreover, in assay [4], the “Log reduction of P. aeruginosa” value is listed as 5 log. Besides, the “Log reduction of S. aureus” value in assay [5] came to 5 log.
